Reference: patent publication US20060069132A1, “Azolecarboxamide herbicides” (priority 2004, published 2006)

Tests used:
[1] = test system: barnyardgrass; experiment: Test B flooded paddy test; type: in vivo, Echinochloa crus-galli; conditions: 1000 g ai/ha, scale 0 to 100 (0 no effect, 100 complete control)
Outline: (§1)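 Greenhouse test; postemergence application to plants at 1–4 leaves (2–18 cm); paddy species at 2 leaves; evaluated visually vs controls at 13–15 days; scale 0–100 (100 = complete control).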

[2] = test system: cocklebur; experiment: Test B pre-/postemergence herbicide test; type: in vivo, Xanthium strumarium; conditions: for Cocklebur plant response rating: postemergence; for Plant response rating (0 to 100 scale), Cocklebur: 0 is no effect
Outline: (§2)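 Greenhouse pot assay with simultaneous preemergence (treated seed) and postemergence (2–18 cm seedlings) applications of surfactant-containing, non-phytotoxic solvent formulations. Response scored visually 13–15 days later on a 0–100 scale, 100 meaning complete control.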

[3] = test system: wheat; experiment: Test B postemergence herbicide test; type: in vivo, Triticum aestivum; set-up: key to Wheat plant response rating: 0 = no effect, 100 = complete control; conditions: postemergence
Outline: as §1

[4] = test system: rice; experiment: Test B flooded paddy test; type: in vivo, Oryza sativa; conditions: 1000 g ai/ha, scale 0 to 100 (0 no effect, 100 complete control)
Outline: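 Each value is a visual 0–100 response rating taken against controls 13 to 15 days after treatment in the greenhouse. Plants received formulated chemical postemergence at the 1- to 4-leaf stage or, in flooded paddy, at the 2-leaf stage.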

[5] = test system: wild oat; experiment: Test B postemergence herbicide test; type: in vivo, Avena fatua; conditions: postemergence
Outline: as §1

[6] = test system: giant foxtail; experiment: Test B pre-/postemergence herbicide test; type: in vivo, Setaria faberi; conditions: for Foxtail, Giant plant response rating: postemergence; for Plant response rating (0 to 100 scale), Foxtail, Giant: 0 is no effect
Outline: (§3)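 Evaluation is visual, comparing treated with control plants on a scale where 0 means no effect and 100 means full control. Treatments were preemergence, or postemergence on seedlings 2–18 cm tall, and held 13–15 days in the greenhouse.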

[7] = test system: barnyardgrass; experiment: Test B pre-/postemergence herbicide test; type: in vivo, Echinochloa crus-galli; conditions: for Barnyardgrass plant response rating: postemergence; for Plant response rating (0 to 100 scale), Barnyardgrass: 0 is no effect
Outline: as §2

[8] = test system: ducksalad; experiment: Test B flooded paddy test; type: in vivo, Heteranthera limosa; conditions: 1000 g ai/ha, scale 0 to 100 (0 no effect, 100 complete control)
Outline: as §1

[9] = test system: large crabgrass; experiment: Test B pre-/postemergence herbicide test; type: in vivo, Digitaria sanguinalis; conditions: for Crabgrass, Large plant response rating: postemergence; for Plant response rating (0 to 100 scale), Crabgrass, Large: 0 is no effect
Outline: as §3

[10] = test system: small flower umbrella sedge; experiment: Test B flooded paddy test; type: in vivo, Cyperus difformis; conditions: 1000 g ai/ha, scale 0 to 100 (0 no effect, 100 complete control)
Outline: as §1

[11] = test system: Surinam grass; experiment: Test B pre-/postemergence herbicide test; type: in vivo, Urochloa decumbens; conditions: for Surinam Grass plant response rating: postemergence; for Plant response rating (0 to 100 scale), Surinam Grass: 0 is no effect
Outline: as §3

[12] = test system: morningglory; experiment: Test B pre-/postemergence herbicide test; type: in vivo, Ipomoea coccinea; conditions: for Morningglory plant response rating: postemergence; for Plant response rating (0 to 100 scale), Morningglory: 0 is no effect
Outline: as §2

[13] = test system: pigweed; experiment: Test B pre-/postemergence herbicide test; type: in vivo, Amaranthus retroflexus; conditions: for Pigweed plant response rating: postemergence; for Plant response rating (0 to 100 scale), Pigweed: 0 is no effect
Outline: as §3

[14] = test system: blackgrass; experiment: Test B postemergence herbicide test; type: in vivo, Alopecurus myosuroides; conditions: postemergence
Outline: as §1

[15] = test system: corn; experiment: Test B pre-/postemergence herbicide test; type: in vivo, Zea mays; conditions: for Corn plant response rating: postemergence; for Plant response rating (0 to 100 scale), Corn: 0 is no effect
Outline: as §3

[16] = test system: lambsquarters; experiment: Test B pre-/postemergence herbicide test; type: in vivo, Chenopodium album; conditions: for Lambsquarters plant response rating: postemergence; for Plant response rating (0 to 100 scale), Lambsquarters: 0 is no effect
Outline: as §3

[17] = 125 g ai/ha, 0 = no effect, 100 = complete control, preemergence
[18] = 125 g ai/ha, visual rating, scale 0 (no effect) to 100 (complete control)
[19] = 500 g ai/ha, visual rating, 0 = no effect, 100 = complete control, preemergence
[20] = 500 g ai/ha, scale 0 to 100, 0 is no effect, 100 is complete control
[21] = 125 g ai/ha, 100 is complete control, preemergence

CCOC(=O)c1cccc(NC(=O)c2cc(C(C)(C)C)nn2C)n1 [Compound 313]
Barnyardgrass plant response rating [1]: 70
Cocklebur plant response rating (0 to 100 scale) [2, 17]: 0
Cocklebur plant response rating [2, 18]: 0
Plant response rating, Cocklebur [2, 19]: 10
Cocklebur plant response rating [2, 20]: 90
Wheat plant response rating [3, 18]: 0
Wheat plant response rating [3, 20]: 10
Rice plant response rating [4]: 80
Oat, Wild plant response rating [5, 18]: 20
Oat, Wild plant response rating [5, 20]: 30
Foxtail, Giant plant response rating (0 to 100 scale) [6, 17]: 40
Foxtail, Giant plant response rating [6, 18]: 20
Plant response rating, Foxtail, Giant [6, 19]: 100
Foxtail, Giant plant response rating [6, 20]: 50
Barnyardgrass plant response rating (0 to 100 scale) [7, 17]: 80
Barnyardgrass plant response rating [7, 18]: 30
Plant response rating, Barnyardgrass [7, 19]: 90
Barnyardgrass plant response rating [7, 20]: 50
Ducksalad plant response rating [8]: 80
Crabgrass, Large plant response rating (0 to 100 scale) [9, 17]: 30
Crabgrass, Large plant response rating [9, 18]: 10
Plant response rating, Crabgrass, Large [9, 19]: 90
Crabgrass, Large plant response rating [9, 20]: 20
Sedge, Umbrella plant response rating [10]: 80
Surinam Grass plant response rating (0 to 100 scale) [11, 17]: 30
Surinam Grass plant response rating [11, 18]: 10
Plant response rating, Surinam Grass [11, 19]: 80
Surinam Grass plant response rating [11, 20]: 20
Morningglory plant response rating (0 to 100 scale) [12, 17]: 10
Morningglory plant response rating [12, 18]: 0
Plant response rating, Morningglory [12, 19]: 40
Morningglory plant response rating [12, 20]: 80
Pigweed plant response rating (0 to 100 scale) [13, 17]: 100
Pigweed plant response rating [13, 18]: 60
Plant response rating, Pigweed [13, 19]: 100
Pigweed plant response rating [13, 20]: 70
Blackgrass plant response rating [14, 18]: 0
Blackgrass plant response rating [14, 20]: 10
Corn plant response rating (0 to 100 scale) [15, 17]: 10
Corn plant response rating [15, 18]: 10
Plant response rating, Corn [15, 19]: 30
Corn plant response rating [15, 20]: 20
Lambsquarters plant response rating (0 to 100 scale) [16, 17]: 100
Lambsquarters plant response rating [16, 18]: 60
Plant response rating, Lambsquarters [16, 19]: 100
Lambsquarters plant response rating [16, 20]: 90

CCn1nc(C(C)(C)C)cc1C(=O)Nc1cccc(OC(F)F)c1 [Compound 332]
Barnyardgrass plant response rating [1]: 60
Plant response rating (0 to 100 scale), Cocklebur [2, 21]: 0
Cocklebur plant response rating [2, 18]: 30
Plant response rating, Cocklebur [2, 19]: 0
Cocklebur plant response rating [2, 20]: 70
Wheat plant response rating [3, 18]: 20
Wheat plant response rating [3, 20]: 30
Rice plant response rating [4]: 50
Oat, Wild plant response rating [5, 18]: 40
Oat, Wild plant response rating [5, 20]: 60
Plant response rating (0 to 100 scale), Foxtail, Giant [6, 21]: 20
Foxtail, Giant plant response rating [6, 18]: 30
Plant response rating, Foxtail, Giant [6, 19]: 60
Foxtail, Giant plant response rating [6, 20]: 50
Plant response rating (0 to 100 scale), Barnyardgrass [7, 21]: 10
Barnyardgrass plant response rating [7, 18]: 20
Plant response rating, Barnyardgrass [7, 19]: 60
Barnyardgrass plant response rating [7, 20]: 60
Ducksalad plant response rating [8]: 90
Plant response rating (0 to 100 scale), Crabgrass, Large [9, 21]: 40
Crabgrass, Large plant response rating [9, 18]: 50
Plant response rating, Crabgrass, Large [9, 19]: 100
Crabgrass, Large plant response rating [9, 20]: 80
Sedge, Umbrella plant response rating [10]: 90
Plant response rating (0 to 100 scale), Surinam Grass [11, 21]: 10
Surinam Grass plant response rating [11, 18]: 20
Plant response rating, Surinam Grass [11, 19]: 20
Surinam Grass plant response rating [11, 20]: 40
Plant response rating (0 to 100 scale), Morningglory [12, 21]: 10
Morningglory plant response rating [12, 18]: 40
Plant response rating, Morningglory [12, 19]: 30
Morningglory plant response rating [12, 20]: 70
Plant response rating (0 to 100 scale), Pigweed [13, 21]: 100
Pigweed plant response rating [13, 18]: 100
Plant response rating, Pigweed [13, 19]: 100
Pigweed plant response rating [13, 20]: 100
Blackgrass plant response rating [14, 18]: 40
Blackgrass plant response rating [14, 20]: 80
Plant response rating (0 to 100 scale), Corn [15, 21]: 0
Corn plant response rating [15, 18]: 0
Plant response rating, Corn [15, 19]: 0
Corn plant response rating [15, 20]: 10
Plant response rating (0 to 100 scale), Lambsquarters [16, 21]: 90
Lambsquarters plant response rating [16, 18]: 80
Plant response rating, Lambsquarters [16, 19]: 100
Lambsquarters plant response rating [16, 20]: 100

CCn1nc(C(C)(C)C)cc1C(=O)Nc1cc(C(=S)N(C)C)ccn1 [Compound 334]
Barnyardgrass plant response rating [1]: 90
Plant response rating (0 to 100 scale), Cocklebur [2, 21]: 60
Cocklebur plant response rating [2, 18]: 20
Plant response rating, Cocklebur [2, 19]: 100
Cocklebur plant response rating [2, 20]: 70
Wheat plant response rating [3, 18]: 10
Wheat plant response rating [3, 20]: 20
Rice plant response rating [4]: 80
Oat, Wild plant response rating [5, 18]: 20
Oat, Wild plant response rating [5, 20]: 30
Plant response rating (0 to 100 scale), Foxtail, Giant [6, 21]: 90
Foxtail, Giant plant response rating [6, 18]: 10
Plant response rating, Foxtail, Giant [6, 19]: 100
Foxtail, Giant plant response rating [6, 20]: 60
Plant response rating (0 to 100 scale), Barnyardgrass [7, 21]: 90
Barnyardgrass plant response rating [7, 18]: 0
Plant response rating, Barnyardgrass [7, 19]: 100
Barnyardgrass plant response rating [7, 20]: 60
Ducksalad plant response rating [8]: 90
Plant response rating (0 to 100 scale), Crabgrass, Large [9, 21]: 90
Crabgrass, Large plant response rating [9, 18]: 10
Plant response rating, Crabgrass, Large [9, 19]: 100
Crabgrass, Large plant response rating [9, 20]: 50
Sedge, Umbrella plant response rating [10]: 80
Plant response rating (0 to 100 scale), Surinam Grass [11, 21]: 80
Surinam Grass plant response rating [11, 18]: 20
Plant response rating, Surinam Grass [11, 19]: 100
Surinam Grass plant response rating [11, 20]: 50
Plant response rating (0 to 100 scale), Morningglory [12, 21]: 0
Morningglory plant response rating [12, 18]: 50
Plant response rating, Morningglory [12, 19]: 70
Morningglory plant response rating [12, 20]: 80
Plant response rating (0 to 100 scale), Pigweed [13, 21]: 60
Pigweed plant response rating [13, 18]: 40
Plant response rating, Pigweed [13, 19]: 100
Pigweed plant response rating [13, 20]: 70
Blackgrass plant response rating [14, 18]: 30
Blackgrass plant response rating [14, 20]: 70
Plant response rating (0 to 100 scale), Corn [15, 21]: 20
Corn plant response rating [15, 18]: 0
Plant response rating, Corn [15, 19]: 70
Corn plant response rating [15, 20]: 20
Plant response rating (0 to 100 scale), Lambsquarters [16, 21]: 100
Lambsquarters plant response rating [16, 18]: 70
Plant response rating, Lambsquarters [16, 19]: 100
Lambsquarters plant response rating [16, 20]: 90
